Laboratory results: patent US8883763B2 (Universite Joseph Fourier, priority 2010, dated 2014)

Legend:
HMEC cells = experiment: Proliferation of HMEC cells (GI50); type: cell-based; conditions: Homo sapiens, 120 h, 50 μM to 1 nM for 5 days
Procedure: The HMECs were seeded at 10% confluence and incubated with the molecules at different concentrations (from 50 μM to 1 nM) for 5 days. The GI50 (50% Growth Inhibition) defines the concentration inducing a 50% reduction in proliferation with respect to the control.

PP1α (PP1CA) = target: T1, PP1α (PP1CA) (Oryctolagus cuniculus, UniProt P62139); experiment: Protein phosphatase test (PP1 activity, DiFMUP fluorescent substrate); type: biochemical; conditions: for IC50: PP1CA at 80 mU, fluorescent substrate (50 μM), molecules from 50 μM to 50 nM, read-out: PP1 Inhibition IC50
T1 construct: purchased New England Biolabs P0754
T1 sequence (P62139 whole entry): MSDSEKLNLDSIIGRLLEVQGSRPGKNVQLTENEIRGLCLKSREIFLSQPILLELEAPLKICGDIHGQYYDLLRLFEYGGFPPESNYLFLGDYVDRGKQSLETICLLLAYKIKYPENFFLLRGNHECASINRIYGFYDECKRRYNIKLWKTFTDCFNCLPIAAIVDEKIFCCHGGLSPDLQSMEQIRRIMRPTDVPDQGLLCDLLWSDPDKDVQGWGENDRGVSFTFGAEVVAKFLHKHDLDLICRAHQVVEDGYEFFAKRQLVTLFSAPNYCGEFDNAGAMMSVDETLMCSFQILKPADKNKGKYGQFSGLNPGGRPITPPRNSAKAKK
Procedure: FIG. 13 presents the graph showing the inhibition of the PP1Cα activity by compound 6 in vitro. PP1Cα (New England Biolabs, 30 mU/well) was incubated in the presence of compound 6 at different concentrations and a fluorescent substrate, diFMUP.
Determination of the 1050 was carried out with PP1CA at 80 mU in the presence of a fluorescent substrate
(50 μM) and different concentrations of molecules from 50 μM to 50 nM.
For the activity tests, PP1α (New England Biolabs # P0754) was used at a final concentration of 30 mU or 80 mU for the screening of all the analogues. 6,8-difluoro-4-methylumbelliferyl phosphate (DiFMUP, Invitrogen # D6567) was used as fluorescent substrate at a concentration of […]. All the tests were carried out in a final volume of 100 μl, at 37° C. in 96-microwell plates (Greiner #655096).
Compound 6, combretastatin A4 (CA-4) as well as all the analogues were diluted in 50 μl of PP1 buffer (100 mM Tris-HCl, pH 7.5, 4 mM DTT, 0.2 mM EDTA, 0.5 mM MnCl2) from 50 μM to 50 nM. Corresponding quantities of DMSO were added to control wells. PP1α (30 or 80 mU in 30 μl of PP1 buffer) was added to each well. After incubating for 15 minutes at AT, the substrate was added (in 20 μl of PP1 buffer). After incubating for 20 minutes at 37° C., the fluorescence was measured in a plate fluorometer at 355-460 nm in order to assay the phosphatase activity. The test was carried out three times in duplicate for each condition.

HeLa cells = experiment: Indirect immunofluorescence: effect on HeLa cells (mitotic arrest, microtubule depolymerization); type: cell-based, human; parameters: key to Effect on Hela at 25 μM / Effect on Hela at 100 μM / Effect on Hela at 50 and 100 μM / Effect on Hela at 50 μM: —: −: no activity on the cells at 25 μM (if there is an effect at high concentrations, this is specified in the table).; *: weak activity (MA and/or slight depolymerization of the MTs and/or slight inhibition of proliferation),; **: average activity (MA and/or moderate depolymerization of the MTs and/or moderate inhibition of proliferation),; ***: strong activity (MA and/or pronounced depolymerization of the MTs and/or pronounced inhibition of proliferation),; ****: very strong activity (MA and/or very pronounced depolymerization of the MTs and/or strong inhibition of proliferation); conditions: 24 hours; for Effect on Hela at 25 μM: mitotic index and/or depolymerization of the MTs
Procedure: The cells were cultured on slides in 24-well plates and incubated for 24 hours with molecule 6 at different concentrations from 1 to 10 μM.
Corresponding quantities of DMSO were added to the culture medium in the control wells.
The cells were fixed in a solution of PBS with 4% paraformaldehyde (PFA) and 0.1% glutaraldehyde (GA), for 15 minutes and centrifuged at 300 g for the last 10 minutes of the fixing. The slides were rinsed in PBS and the free aldehyde groups were reduced by two successive 5-minute incubations in PBS containing 1 mg/ml of NaBH4.
After one washing with PBS then another with PBST (PBS with 0.5% triton-X-100), the cells are incubated for 30 minutes at ambient temperature with anti α-tubulin monoclonal antibody solution (DM1A clone, Sigma # T6199) diluted to 1:200 in PBST. After 3 10-minute washings with PBST, the cells are incubated for 30 minutes at ambient temperature in a solution of goat anti-mouse polyclonal antibodies coupled with Alexa 488 (1:1000, Molecular Probes # A-11029) and phalloidin coupled with Texas red to label the actin (1:2000, Molecular Probes # T7471), in PBST also containing Hoechst 33258 (1 μg/ml) for labelling the DNA. After 3 10-minute washings in PBST, the slides are mounted on plates in Fluorsave™ mounting medium (Calbiochem #345789) and are observed and analyzed using an Axiovert 200M inverted fluorescence microscope (Zeiss®). The images are produced with a Plan-Apochromat 63× oil objective (Zeiss®) by means of a Coolsnap HQ camera (Roper Scientifics®) and with Metamorph acquisition software (Universal Imaging™ Corporation).
In order to evaluate the effect of the analogues of compound 6 on PHFs and HeLa cells, the immunofluorescence technique described above was used and adapted to a 96-well dish format. The cells were seeded in glass-bottomed 96-well dishes and incubated for 24 hours in the presence of different concentrations of molecules from 100 μM to 50 nM. And in the same way as described above, the cells were fixed and immunolabelled. Analysis of the phenotypes as well as counting the mitotic cells were carried out with the same microscope but using a ×40 objective (Olympus). The molecules were compared with each other with respect to the mitotic arrest induced on PHFs and HeLa cells at 25 and 0.3 μM.
The mitotic index and/or the depolymerization of the MTs were evaluated at 25 μM.

bovine brain tubulin = experiment: In vitro tubulin polymerization test (turbidimetry at 350 nm); type: biochemical; conditions: molecules at 50 μM, calculated at t=3000 s, DMSO control = 100%
Procedure: Tubulin was purified from bovine brain using the polymerization-depolymerization process described by (Castoldi M and Popov A V. Protein Expr Purif. 2003, 32(1): pp 83-8).
The in vitro tubulin polymerization tests (at 50 μM) were carried out in the presence of GTP 1 mM in BRB80 buffer (80 mM K-PIPES pH 6.8, 1 mM MgCl2, 1 mM EGTA) at 37° C. The tests were carried out in 96-microwell plates (half-wells) (Costar plates, Corning #3695), in triplicate with a final volume of 70 μl. Tubulin assembly was carried out in the presence of compound 6 or its analogues (all used at a concentration of 50 μM) and was monitored by turbidimetry measurement at 350 nm using a spectrophotometer (Spectramax More, Molecular Devices).
Measurement of the effect of a molecule on polymerization was calculated at t=3000 s taking the value of the control at the same time as being equal to 100%.

Row | IC50 (PP1α (PP1CA)) | Structure (SMILES) | GI50 (HMEC cells) | Effect on Hela at 25 μM (HeLa cells) | Tubulin polymerization inhibition (bovine brain tubulin) | Effect on Hela at 50 and 100 μM (HeLa cells) | Effect on Hela at 100 μM (HeLa cells; 100 μM) | Effect on Hela at 50 μM (HeLa cells; 50 μM) | inhibition of PP1Cα activity in vitro (PP1α (PP1CA); PP1Cα 30 mU/well, diFMUP, negative control)
1 | > 50 µM | COc1ccc(-c2[nH]c(=O)c3cc(OC)ccc3c2N)cc1 [Compound 1, 4-amino-7-methoxy-3-(4-methoxyphenyl)isoquinolin-1(2H)-one] | 1 to 25 µM | *** | — ((−) signifies that the molecule induces little or no tubulin assembly inhibition in vitro: 0+ or − −5% of the DMSO control.) |  |  |  | 
2 | > 50 µM | Nc1c(-c2ccccc2)[nH]c(=O)c2ccccc12 [Compound 2] | 25 to 50 µM | — | — ((−) signifies that the molecule induces little or no tubulin assembly inhibition in vitro: 0+ or − −5% of the DMSO control.) |  |  |  | 
3 | > 50 µM | COc1ccc(-c2cc3ccc(OC)cc3c(=O)[nH]2)cc1 [Compound 4, 7-methoxy-3-(4-methoxyphenyl)isoquinolin-1(2H)-one] | > 50 µM | — | — ((−) signifies that the molecule induces little or no tubulin assembly inhibition in vitro: 0+ or − −5% of the DMSO control.) | ** |  |  | 
4 | > 50 µM | COc1ccc(-c2[nH]c(=O)c3cc(OC)ccc3c2-c2ccc(OC)cc2)cc1 [Compound 5] | 0.1 to 1 µM | *** | +++ ((+++) signifies that the molecule induces tubulin assembly inhibition in vitro of more than 50% with respect to the DMSO control.) |  |  |  | 
5 | > 50 µM | COc1ccc(-c2[nH]c(=O)c3ccccc3c2[N+](=O)[O-])cc1 [Compound 7] | 1 to 25 µM | *** | + ((+) signifies that the molecule induces tubulin assembly inhibition in vitro comprised between 6 and 25% of the DMSO control.) |  |  |  | 
6 | > 50 µM | COc1ccc(-c2[nH]c(=O)c3ccccc3c2N)cc1 [Compound 8] | > 50 µM | — | — ((−) signifies that the molecule induces little or no tubulin assembly inhibition in vitro: 0+ or − −5% of the DMSO control.) |  |  |  | 
7 | > 50 µM | COc1ccc2c(NC=O)c(-c3ccccc3)[nH]c(=O)c2c1 [Compound 9, N-(7-Methoxy-1-oxo-3-phenyl-1,2-dihydroisoquinoline-4-yl)methanamide] | 25 to 50 µM | — | — ((−) signifies that the molecule induces little or no tubulin assembly inhibition in vitro: 0+ or − −5% of the DMSO control.) | ** |  |  | 
8 | > 50 µM | COc1ccc2c(N)c(-c3ccccc3)[nH]c(=O)c2c1 [Compound 10] | > 50 µM | — | + ((+) signifies that the molecule induces tubulin assembly inhibition in vitro comprised between 6 and 25% of the DMSO control.) | * |  |  | 
9 | > 50 µM | COc1ccc(-c2[nH]c(=O)c3cc(OC)ccc3c2Cl)cc1 [Compound 14, 4-Chloro-7-methoxy-3-(4-methoxyphenyl)isoquinoline-1(2H)-one] | 25 to 50 µM | — | +++ ((+++) signifies that the molecule induces tubulin assembly inhibition in vitro of more than 50% with respect to the DMSO control.) |  |  |  | 
10 | > 50 µM | COc1ccc(-c2[nH]c(=O)c3cc(OC)ccc3c2O)cc1 [Compound 41, 4-Hydroxy-7-methoxy-3-(4-methoxyphenyl)isoquinolin-1(2H)-one] | 1 to 25 µM | — | — ((−) signifies that the molecule induces little or no tubulin assembly inhibition in vitro: 0+ or − −5% of the DMSO control.) |  |  |  | 
11 | > 50 µM | COc1ccc(-c2[nH]c(=O)c3cc(OC)ccc3c2NCCOCCO)cc1 [Compound 50, 4-(2-(2-hydroxyethoxy)ethylamino)-7-methoxy-3-(4-methoxyphenyl)isoquinolin-1(2H)-one] | 25 to 50 µM | — | +++ ((+++) signifies that the molecule induces tubulin assembly inhibition in vitro of more than 50% with respect to the DMSO control.) |  |  |  | 
12 | 10 to 24 µM | O=c1[nH]c(-c2ccc(O)cc2)c(Cl)c2ccc(O)cc12 [Compound 56, 4-Chloro-7-hydroxy-3-(4-hydroxyphenyl)isoquinoline-1(2H)-one] | > 50 µM | — | — ((−) signifies that the molecule induces little or no tubulin assembly inhibition in vitro: 0+ or − −5% of the DMSO control.) |  | * |  | 
13 | > 50 µM | O=c1[nH]c(-c2ccc(O)cc2)cc2ccc(O)cc12 [Compound 57, 7-Hydroxy-3-(4-hydroxyphenyl)isoquinoline-1(2H)-one] | 1 to 25 µM | *** | + ((+) signifies that the molecule induces tubulin assembly inhibition in vitro comprised between 6 and 25% of the DMSO control.) |  |  |  | 
14 | 25 to 50 µM | COc1ccc2c([N+](=O)[O-])c(-c3ccc(C#CC(C)(C)O)cc3)[nH]c(=O)c2c1 [Compound 59] | > 50 µM | — | — ((−) signifies that the molecule induces little or no tubulin assembly inhibition in vitro: 0+ or − −5% of the DMSO control.) |  |  |  | 
15 | 10 to 24 µM | O=c1c2ccccc2cc(-c2ccccc2)n1Cc1ccc(O)cc1 [Compound 74, 2-(p-hydroxybenzyl)-3penylisoquinolin-1(2H)-one] | 25 to 50 µM | — |  |  |  | * | 
16 |  | COc1ccc(/C=C\c2cc(OC)c(OC)c(OC)c2)cc1O [combretastatin A-4, reference compound] |  |  |  |  |  |  | does not inhibit PP1 activity
